Converted amounts (≈) assume the structure as drawn. Like-named read-outs stand apart in the source and are kept apart here.
Legend:
CCD 841 CoN = test: MTT viability assay, normal colon epithelial cells; type: cell-based, human; settings: for Cell viability: CCD 841 CoN, 24 h; for IC50: Homo sapiens, CCD-841CoN
Excerpt: (§1) Cell lines of different origins were used in the study and grouped as follows: prostate panel (human prostate carcinomas: DU145, derived from metastatic site: brain; grade IV PC3, derived from metastatic site: bone; LNCaP, derived from the metastatic site: lymph node; prostate epithelial, PNT2), colon panel (colorectal adenocarcinomas: HT29, originating from a primary tumor; Duke’s type C DLD-1, with the potential to lymph node metastasis; highly metastatic HCT116; colon epithelial cells CCD 841 CoN), thyroid panel (follicular thyroid carcinoma FTC133, anaplastic thyroid carcinoma 8505C, papillary thyroid carcinoma TPC-1, normal thyroid follicular epithelial Nthy-ori 3–1), breast panel (ER-positive breast adenocarcinoma MCF7, ER-negative breast adenocarcinoma MDA-MB-231, breast epithelial MCF10A), brain panel (neuroblastoma SH-SY5Y, glioblastoma U-87 MG, murine astrocytes C8D1A). All cell lines were purchased from Merck (Darmstadt, Germany).
(§2) Cells were grown under standard conditions (37 °C, 5% CO2) and culture media (DMEM/F12 for PNT2, PC3, FTC133, 8505 C, MDA-MB-231, TPC-1; DMEM Low Glucose for DU145; DMEM High Glucose for HCT116, DLD-1, SH-SY5Y, U87MG, C8D1A; MEM with NEAA for MCF7; MEM for CCD 841 CoN; McCoy’s for HT29; RPMI1640 with sodium pyruvate for LNCaP; DMEM/F12 with 20 ng/mL epidermal growth factor (EGF), 10 μg/mL insulin, 0.5 μg/mL hydrocortisone, 100 ng/mL cholera toxin) for MCF10A), supplemented with 10% fetal bovine serum (FBS) or 5% donor horse serum for MCF10A, and 1% antibiotics solution (10,000 U penicillin and 10 mg streptomycin/mL). The tested substances were prepared as 10 mg/mL stock solutions in DMSO and further diluted in the culture media to the working concentrations. Cells were treated with UA enantiomers at the concentration range of 0–50 µg/mL. The influence of DMSO on cell viability was also examined, with the final concentration […], and no toxic effect was noted.
(§3) The cells were seeded onto 96-well plates at a density of 1.5 × 10^4 cells/well. After 24 h UA enantiomers were added. Cell viability was determined after 24, 48, and 72 h by the MTT assay, as described previously. Doxorubicin was used as a reference cytostatic drug. All analyses were performed in triplicate; cell viability was expressed as % of control, untreated cells (mean ± SD), and IC50 values (concentration at which cell viability is inhibited by 50%), if possible.

DU145 = test: MTT viability assay, DU145 prostate cancer cells; type: cell-based, human; settings: for Cell viability: DU145, 24 h; for IC50: Homo sapiens, DU-145
Excerpt: as §1, §2, §3
(§4) The selectivity index (SI) was calculated, if possible, by dividing the IC50 value obtained for non-cancerous cells line by the IC50 values obtained for appropriate cancer cell line, as described previously. […] The values above 3 indicate good selectivity.

Nthy ori 3-1 = test: MTT viability assay, normal thyroid follicular epithelial cells; type: cell-based, human; settings: for IC50: Homo sapiens; for Cell viability: Nthy ori 3-1, 24 h
Excerpt: as §1, §2, §3

U87MG = test: MTT viability assay, glioblastoma U87MG cells; type: cell-based, human; settings: 24 h
Excerpt: as §1, §2, §3

PC3 = test: MTT viability assay, PC3 prostate cancer cells; type: cell-based, human; settings: for IC50: Homo sapiens, PC-3; for Cell viability: PC3, 24 h
Excerpt: as §1, §2, §3, §4

HT29 = test: MTT viability assay, HT29 colon cancer cells; type: cell-based, human; settings: for Cell viability: HT29, 24 h; for IC50: Homo sapiens, HT-29
Excerpt: as §1, §2, §3

MCF7 = test: MTT viability assay, MCF7 breast cancer cells; type: cell-based, human; settings: for IC50: Homo sapiens; for Cell viability: MCF7, 24 h
Excerpt: as §1, §2, §3, §4

HCT116 = test: MTT viability assay, HCT116 colon cancer cells; type: cell-based, human; settings: for Cell viability: HCT116, 24 h; for IC50: Homo sapiens, HCT-116
Excerpt: as §1, §2, §3

MCF7 cells = tested on: MCF7 cells; design: method as in not printed ('another' study); settings: MCF7, 72 h, ref not given ('another' study), cited from earlier work
PNT2 = test: MTT viability assay, normal prostate epithelial cells; type: cell-based, human; settings: for IC50: Homo sapiens; for Cell viability: PNT2, 24 h
Excerpt: as §1, §2, §3

CC(=O)C1=C(O)C=C2Oc3c(C(C)=O)c(O)c(C)c(O)c3[C@]2(C)C1=O [UA(−), (−)-usnic acid]
Cell viability (CCD 841 CoN; 2.5 µg/mL): 98.61 % of control
Cell viability (CCD 841 CoN; 5 µg/mL): 98.89 % of control
Cell viability (CCD 841 CoN; 10 µg/mL): 96.39 % of control
Cell viability (CCD 841 CoN; 20 µg/mL): 99.72 % of control
Cell viability (CCD 841 CoN; 30 µg/mL): 96.11 % of control
Cell viability (CCD 841 CoN; 40 µg/mL): 96.94 % of control
Cell viability (CCD 841 CoN; 50 µg/mL): 93.06 % of control
IC50 (CCD 841 CoN; 48 h): > 50 µg/mL
IC50 (CCD 841 CoN; 72 h): > 50 µg/mL
Cell viability (DU145; 2.5 µg/mL): 99.84 % of control
Cell viability (DU145; 5 µg/mL): 89.03 % of control
Cell viability (DU145; 10 µg/mL): 82.15 % of control
Cell viability (DU145; 20 µg/mL): 77.63 % of control
Cell viability (DU145; 30 µg/mL): 68.28 % of control
Cell viability (DU145; 40 µg/mL): 64.95 % of control
Cell viability (DU145; 50 µg/mL): 65.86 % of control
IC50 (DU145; DU145, 48 h): 34.8 µg/mL (≈ 101 µM)
IC50 (DU145; DU145, 72 h): 18.6 µg/mL (≈ 54 µM)
selectivity index (SI) (DU145; IC50 PNT2 / IC50 DU145, 48 h): 1.02
selectivity index (SI) (DU145; IC50 PNT2 / IC50 DU145, 72 h): 1.49
IC50 (Nthy ori 3-1; Nthy-ori 3-1, 48 h): > 50 µg/mL
IC50 (Nthy ori 3-1; Nthy-ori 3-1, 72 h): 29.3 µg/mL (≈ 85.1 µM)
Cell viability (Nthy ori 3-1; 2.5 µg/mL): 97.23 % of control
Cell viability (Nthy ori 3-1; 5 µg/mL): 99.36 % of control
Cell viability (Nthy ori 3-1; 10 µg/mL): 94.52 % of control
Cell viability (Nthy ori 3-1; 20 µg/mL): 93.76 % of control
Cell viability (Nthy ori 3-1; 30 µg/mL): 95.25 % of control
Cell viability (Nthy ori 3-1; 40 µg/mL): 96.10 % of control
Cell viability (Nthy ori 3-1; 50 µg/mL): 98.58 % of control
Cell viability (U87MG; 2.5 µg/mL): 102.34 % of control
Cell viability (U87MG; 5 µg/mL): 102.19 % of control
Cell viability (U87MG; 10 µg/mL): 101.69 % of control
Cell viability (U87MG; 20 µg/mL): 101.59 % of control
Cell viability (U87MG; 30 µg/mL): 111.54 % of control
Cell viability (U87MG; 40 µg/mL): 106.02 % of control
Cell viability (U87MG; 50 µg/mL): 98.56 % of control
IC50 (PC3; PC3, 48 h): 37.8 µg/mL (≈ 110 µM)
IC50 (PC3; PC3, 72 h): 34.8 µg/mL (≈ 101 µM)
selectivity index (SI) (PC3; IC50 PNT2 / IC50 PC3, 48 h): 0.93
selectivity index (SI) (PC3; IC50 PNT2 / IC50 PC3, 72 h): 0.79
Cell viability (PC3; 2.5 µg/mL): 102.94 % of control
Cell viability (PC3; 5 µg/mL): 94.68 % of control
Cell viability (PC3; 10 µg/mL): 91.59 % of control
Cell viability (PC3; 20 µg/mL): 89.10 % of control
Cell viability (PC3; 30 µg/mL): 76.52 % of control
Cell viability (PC3; 40 µg/mL): 69.15 % of control
Cell viability (PC3; 50 µg/mL): 68.91 % of control
Cell viability (HT29; 2.5 µg/mL): 102.45 % of control
Cell viability (HT29; 5 µg/mL): 90.48 % of control
Cell viability (HT29; 10 µg/mL): 84.03 % of control
Cell viability (HT29; 20 µg/mL): 79.62 % of control
Cell viability (HT29; 30 µg/mL): 74.37 % of control
Cell viability (HT29; 40 µg/mL): 72.48 % of control
Cell viability (HT29; 50 µg/mL): 73.95 % of control
IC50 (HT29; HT29, 48 h): > 50 µg/mL
IC50 (HT29; HT29, 72 h): 32.7 µg/mL (≈ 95 µM)
IC50 (MCF7; MCF7, 48 h): > 50 µg/mL
IC50 (MCF7; MCF7, 72 h): 33.4 µg/mL (≈ 97 µM)
Cell viability (MCF7; 2.5 µg/mL): 124.74 % of control
Cell viability (MCF7; 5 µg/mL): 113.59 % of control
Cell viability (MCF7; 10 µg/mL): 110.03 % of control
Cell viability (MCF7; 20 µg/mL): 106.15 % of control
Cell viability (MCF7; 30 µg/mL): 109.10 % of control
Cell viability (MCF7; 40 µg/mL): 106.28 % of control
Cell viability (MCF7; 50 µg/mL): 91.15 % of control
Cell viability (HCT116; 2.5 µg/mL): 112.65 % of control
Cell viability (HCT116; 5 µg/mL): 108.16 % of control
Cell viability (HCT116; 10 µg/mL): 96.26 % of control
Cell viability (HCT116; 20 µg/mL): 84.97 % of control
Cell viability (HCT116; 30 µg/mL): 72.86 % of control
Cell viability (HCT116; 40 µg/mL): 71.90 % of control
Cell viability (HCT116; 50 µg/mL): 73.33 % of control
IC50 (HCT116; HCT116, 48 h): 26.2 µg/mL (≈ 76.1 µM)
IC50 (HCT116; HCT116, 72 h): 10.7 µg/mL (≈ 31.1 µM)
IC50 (MCF7 cells; recalculated from µM by the authors): 17.8 µg/mL
IC50 (MCF7 cells; read-out: IC50): 51.7 µM
IC50 (PNT2; PNT2, 48 h): 35.4 µg/mL (≈ 103 µM)
IC50 (PNT2; PNT2, 72 h): 27.8 µg/mL (≈ 80.7 µM)
Cell viability (PNT2; 2.5 µg/mL): 103.40 % of control
Cell viability (PNT2; 5 µg/mL): 99.24 % of control
Cell viability (PNT2; 10 µg/mL): 91.32 % of control
Cell viability (PNT2; 20 µg/mL): 83.13 % of control
Cell viability (PNT2; 30 µg/mL): 74.58 % of control
Cell viability (PNT2; 40 µg/mL): 68.75 % of control
Cell viability (PNT2; 50 µg/mL): 54.38 % of control
